{"source": "patent US12084444B2", "about": "“Spiro-lactam NMDA modulators and methods of using same” (Tenacia Biotechnology (Hong Kong) Co., Limited, priority 2016, dated 2024)", "key": {"Sprague Dawley rats [1]": {"tested_on": "Sprague Dawley rats", "test": "Bennett model of mechanical analgesia (sciatic nerve chronic constriction injury)", "assay_type": "in vivo", "protocol": "The Bennett model of mechanical analgesia is used to assess the analgesic effects of compounds as measured by paw withdrawal threshold. Bennett G J, Xie Y K, “A peripheral mononeuropathy in rat that produces disorders of pain sensation like those seen in man,” Pain 33:87-107, 1988. […] Vehicle animals receive the surgery and then receive vehicle rather than test compound. Animals were tested 1 hr, 24 h and 1 wk post-test compound or vehicle administration.\nMale 2-3 month old Sprague Dawley rats were used. Harlan was the supplier for all studies. Rats were housed in Lucite cages with aspen wood chip bedding, maintained on a 12:12 light:dark cycle (lights on at 5 AM), and given ad libitum access to Purina lab chow (USA) and tap water throughout the study.\nRats were anesthetized using inhaled isoflurane (2.5%). Sciatic nerve chronic constriction nerve injury surgery was performed as previously described (Bennett and Xie, 1988). An incision (˜1.5 cm in length) was made with a scalpel blade dorsally through skin on the right hind limb, parallel and posterior to femur. Using a small pointed hemostat, the biceps femoris and gluteus superficialis muscles were separated. Using curved blunt forceps, the common sciatic nerve was isolated and exposed. For the mechanical analgesia studies, the whole sciatic nerve was ligated. Using hemostats/forceps and chromic gut (5-0), the nerve was loosely ligated with a square knot; 3 ligatures, 1 mm apart were placed on the nerve. […] Testing occurred approximately 2 weeks post-surgery.\nDuring testing, rats were acclimated to the surface of a suspended wire mesh grid (1 cm×1 cm, with the wire being 0.3 cm in diameter) for 15-20 min. Starting from the smallest, each Von Frey filament was pressed perpendicularly to the plantar surface of the affected (ipsilateral) hind paw until slightly bent and then held for 6 second. If an obvious hind paw withdrawal or a flinching behavior immediately after the withdrawal of the filament was not observed, the next larger filament was used in the same manner. In case of a response, a lower filament was used. This was repeated until six responses were collected.\nFor all studies, animals were baselined prior to study start to test for allodynia (defined as a paw withdrawal threshold under 5). A subset of animals was tested with gabapentin (150 mg/kg, PO) to ensure at least 50% analgesia. Once it was confirmed animals were ready for study initiation, animals were balanced across groups. All study investigators were blind to treatment conditions. Animals were dosed with 0.1, 1, 10, or 30 mg/kg of test compound via oral gavage (PO), control sets of animals were dosed with gabapentin (150 mg/kg, PO) or vehicle (0.5% Na-CMC in 0.9% sterile saline, PO). Testing occurred 1 h post-dosing with animals retested 24 hrs and 1 week post-dosing. The percent analgesia calculations for each animal were made using the following equation: % analgesia=[(log(x)−y)/((log (z)−y)]*100, where x=the paw withdrawal threshold for the drug-treated animal in grams, y=the average of the log(x) values for the vehicle treated group, and z=the paw withdrawal threshold for naïve animals in grams (historical value of 15 used). The results for Compound AA-2, where the percentage of analgesia is measured at 1 hour, 24 hours, and 1 week after compound administration are as follows: for 0.1 mg/kg dose: 22.3% at 1 h, 1.6% at 24 h, and 2.3% at 1 wk; for 1 mg/kg dose: 19.2% at 1 h, 10.7% at 24 h, and 11.0% at 1 wk; for 10 mg/kg dose: 38.1% at 1 h, 24.3% at 24 h, and 41.4% at 1 wk; and for 30 mg/kg dose: 24.4% at 1 h, 8.7% at 24 h, and 34.5% at 1 wk."}, "Sprague Dawley rats [2]": {"tested_on": "Sprague Dawley rats", "test": "Porsolt forced swim test", "assay_type": "in vivo", "conditions": "0.1 mg/kg; for % reduction in float time: relative to vehicle group", "protocol": "A non-clinical in vivo pharmacology study (Porsolt assay) was performed to measure antidepressant-like effects. A negative control (0.5% sodium carboxymethyl cellulose in 0.9% sterile saline vehicle) and a positive control (fluoxetine) are shown for comparison against test compound. The study allowed for the evaluation of the effects of each compound on the Porsolt forced swim test as assessed by the rats' response (reduced floating time) during a 5-minute swimming test.\nMale 2-3 month old Sprague Dawley rats were used (Harlan, Indianapolis, IN). Rats were housed in Lucite cages with aspen wood chip bedding, maintained on a 12:12 light:dark cycle (lights on at 5 AM), and given ad libitum access to Purina lab chow (USA) and tap water throughout the study.\nThe Porsolt forced swim test adapted for use in rats was performed as described by Burgdorf et al., (The long-lasting antidepressant effects of rapastinel (GLYX-13) are associated with a metaplasticity process in the medial prefrontal cortex and hippocampus. Neuroscience 308:202-211, 2015). Animals were placed in a 46 cm tall×20 cm in diameter clear glass tube filled to 30 cm with tap water (23±1° C.) for 15 min on the first day (habituation) and 5 min on the subsequent test day. Positive control fluoxetine was dosed 3 times (24 h, 5 h and 1 h) prior to testing. Animals were tested 1 h or 24 h post-dosing with the test compounds or vehicle. Animals received a 15 min habituation session 1 day before the 5 min test. Water was changed after every other animal. Animals were videotaped, and floating time as defined as the minimal amount of effort required to keep the animals head above water was scored offline by a blinded experimenter with high inter-rater reliability (Pearson's r>0.9).\nEach compound tested at dose level shown. Significance vs. vehicle group for each experiment is marked. […] A compound marked “No” was not statistically significant from vehicle. Data was averaged for test compound and vehicle groups (N approximately 8 per group) and the percent reduction in floating for group treated with test compound relative to group treated with vehicle is shown."}, "IV pharmacokinetics": {"test": "IV pharmacokinetics", "design": "species or system Sprague Dawley rats", "conditions": "Sprague Dawley, in vivo, rat, 2 mg/kg, normal saline", "protocol": "Sprague Dawley rats were dosed intravenously using a normal saline formulation containing 2 mg/kg of the compounds identified in the below table. The table below summarizes the results of the IV pharmacokinetics."}}}
{"smiles": "COc1ccc(CN2C[C@@]3(CCNC(=O)C3)C2=O)cc1", "note": "[Compound AA-2, 2-(4-methoxybenzyl)-2,7-diazaspiro[3.5]nonane-1,6-dione]", "values": [{"measurement": "% analgesia", "setting": "Sprague Dawley rats [1]; 0.1 mg/kg PO, 1 wk", "value": 2.3, "unit": "%"}, {"measurement": "% analgesia", "setting": "Sprague Dawley rats [1]; 0.1 mg/kg PO, 1 h", "value": 22.3, "unit": "%"}, {"measurement": "% analgesia", "setting": "Sprague Dawley rats [1]; 0.1 mg/kg PO, 24 h", "value": 1.6, "unit": "%"}, {"measurement": "% analgesia", "setting": "Sprague Dawley rats [1]; 1 mg/kg PO, 1 wk", "value": 11.0, "unit": "%"}, {"measurement": "% analgesia", "setting": "Sprague Dawley rats [1]; 1 mg/kg PO, 1 h", "value": 19.2, "unit": "%"}, {"measurement": "% analgesia", "setting": "Sprague Dawley rats [1]; 1 mg/kg PO, 24 h", "value": 10.7, "unit": "%"}, {"measurement": "% analgesia", "setting": "Sprague Dawley rats [1]; 10 mg/kg PO, 1 wk", "value": 41.4, "unit": "%"}, {"measurement": "% analgesia", "setting": "Sprague Dawley rats [1]; 10 mg/kg PO, 1 h", "value": 38.1, "unit": "%"}, {"measurement": "% analgesia", "setting": "Sprague Dawley rats [1]; 10 mg/kg PO, 24 h", "value": 24.3, "unit": "%"}, {"measurement": "% analgesia", "setting": "Sprague Dawley rats [1]; 30 mg/kg PO, 1 wk", "value": 34.5, "unit": "%"}, {"measurement": "% analgesia", "setting": "Sprague Dawley rats [1]; 30 mg/kg PO, 1 h", "value": 24.4, "unit": "%"}, {"measurement": "% analgesia", "setting": "Sprague Dawley rats [1]; 30 mg/kg PO, 24 h", "value": 8.7, "unit": "%"}, {"measurement": "Significance vs. vehicle", "setting": "Sprague Dawley rats [2]; 1 h post-dose", "value": "Yes (found to be statistically significant (p<=0.05) from vehicle at dose level shown)"}, {"measurement": "% reduction in float time", "setting": "Sprague Dawley rats [2]; 1 h post-dose", "value": 51.5, "unit": "%"}, {"measurement": "Significance vs. vehicle", "setting": "Sprague Dawley rats [2]; 24 h post-dose", "value": "Yes (found to be statistically significant (p<=0.05) from vehicle at dose level shown)"}, {"measurement": "% reduction in float time", "setting": "Sprague Dawley rats [2]; 24 h post-dose", "value": 77.80, "unit": "%"}, {"measurement": "AUC(0-t)", "setting": "IV pharmacokinetics", "value": 3370, "unit": "ng·h/mL"}, {"measurement": "C0", "setting": "IV pharmacokinetics", "value": 1990, "unit": "ng/mL"}, {"measurement": "clearance", "setting": "IV pharmacokinetics", "value": 9.82, "unit": "mL/min/kg"}, {"measurement": "half-life", "setting": "IV pharmacokinetics", "value": 1.25, "unit": "h"}, {"measurement": "Vd", "setting": "IV pharmacokinetics; read-out: Vss", "value": 0.54, "unit": "L/kg"}]}
